Tests used:
UT-B = molecular target: T1, UT-B (Homo sapiens, UniProt Q13336); experiment: Erythrocyte lysis assay for UT-B inhibition, human erythrocytes; assay type: cell-based
T1 construct: endogenous in cells; host or cells: erythrocytes from healthy adult male volunteers
T1 sequence (Q13336 1-389): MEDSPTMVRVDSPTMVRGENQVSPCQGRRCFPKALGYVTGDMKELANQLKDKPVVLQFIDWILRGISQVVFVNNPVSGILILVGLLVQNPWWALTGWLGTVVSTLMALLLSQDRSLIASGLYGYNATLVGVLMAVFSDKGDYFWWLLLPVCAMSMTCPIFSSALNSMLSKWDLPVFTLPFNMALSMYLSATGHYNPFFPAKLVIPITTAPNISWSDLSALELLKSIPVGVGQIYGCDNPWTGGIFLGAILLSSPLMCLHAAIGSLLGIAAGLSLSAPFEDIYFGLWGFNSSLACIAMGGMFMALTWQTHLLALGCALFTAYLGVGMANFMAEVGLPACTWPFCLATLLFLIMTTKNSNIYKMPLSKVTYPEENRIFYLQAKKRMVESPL
Description: The erythrocyte lysis assay was modified from a method described previously. Erythrocytes obtained from veins were diluted to a hematocrit value of 2% in hyperosmolar PBS containing 1.25 mol/L urea and 5 mmol/L glucose and incubated at r.t. for 2 h. Then, 99 μL erythrocyte suspension from a reservoir was added to each well of a 96-well round-bottom microplate, then 1 μL of the testing compound (500, 125, 31.25, 7.81, 1.95, 0.488, 0.122, 0.031, 0.0076 μmol/L dissolved in DMSO) was added to erythrocyte suspension and shook it up with microoscillator for 1 min. Following 5 min incubation, 20 μL erythrocyte suspension was transferred into 96-well black microplates preloaded with 180 μL isotonic PBS (10 mM, urea-free). Erythrocyte lysis was monitored at 710 nm optical density (OD710) for 6 min, with lysis rates calculated using control values from the same plate as Equation (1):Lysis (%) = 100 × (Aneg − Atest)/(Aneg − Apos)(1) where Atest is the absorbance value from the test well, Aneg is from a negative no-lysis control well, and Apos is from a positive full-lysis control.

[1] = system: rat hyponatremia model caused by SIADH; experiment: Rat hyponatremia model caused by SIADH (dDAVP); assay type: in vivo
Description: The protocol for dDAVP-induced hyponatremia was adapted from a previous study, with tolvaptan chosen as the positive control. Preliminary experiments determined the dose of dDAVP (0.25 ng/h). Under isoflurane anesthesia, a 0.5 μg/mL dDAVP solution was injected subcutaneously using an osmotic minipump (ALZET 2002, Cupertino, CA, USA; 200 μL, low rate of 0.5 μL/h for […]). Rats were housed individually in metabolic cages to collect urine. Before using the pump, they were given 62.5 mL/d 1.0 kcal/mL of liquid food. After pump implantation, the rats received 40 mL of 2.1 kcal/mL of liquid feed daily. The rats were divided into five groups: control group (sham operation), model group (0.5% poloxamer, solvent), 4 mg/kg tolvaptan group, 4 mg/kg E3 group, and 20 mg/kg E3 group. E3 was administered orally every 8 h, while tolvaptan was given intragastrically once daily. At the end of the experiment, the rats were sacrificed.

[2] = Liver microsome metabolic stability, rat; assay type: in vitro ADME; conditions: 60 min incubation, 37 °C
Description: Plasma from mice, rats, rabbits, and humans was obtained from blood after centrifugation at 3000 r/min for 10 min. Simulated gastric fluid (SGF, pH = 1, containing pepsin) and simulated intestinal fluid (SIF, pH = 6.8, containing trypsin) were configured previously in the experiments. SD rats and mice were collected, and after removing the mucus layer from the small intestine and colon, 20 times the volume of liquid bacterial culture medium was added. An intestinal microbiota suspension was obtained after anaerobic cultivation on a shaking table at 37 °C for 12 h. In the aforementioned systems, E3 was added at a final concentration of 1 μmol/L at 37 °C for different incubation times (0, 10, 20, 30, 60, 120, and 240 min). In liver metabolic stability assays, E3 was incubated with liver microsomes or liver homogenate from mice or rats for 60 min at 37 °C. The stop solution, 5 ng/mL tolbutamide (internal standard, IS) in acetonitrile, was added to stop the metabolic process. Post-centrifugation (18,000× g, 10 min, 4 °C), supernatants were subjected to liquid chromatography–tandem mass spectrometry (LC–MS/MS). Analyte-to-IS peak area ratios quantified residual percentages via Equation (2):Remaining% = (E3peak area/ISpeak area at different time)/(E3peak area/ISpeak area at 0 min) × 100%.(2)

rat UT-B = molecular target: T2, rat UT-B (Rattus norvegicus, UniProt P97689); experiment: Transwell assay of UT-B inhibition in UT-B-MDCK cells; assay type: cell-based; conditions: read-out: IC50 against UT-B-mediated urea permeability
T2 construct: expressed in transfected cells
T2 sequence (P97689 1-384): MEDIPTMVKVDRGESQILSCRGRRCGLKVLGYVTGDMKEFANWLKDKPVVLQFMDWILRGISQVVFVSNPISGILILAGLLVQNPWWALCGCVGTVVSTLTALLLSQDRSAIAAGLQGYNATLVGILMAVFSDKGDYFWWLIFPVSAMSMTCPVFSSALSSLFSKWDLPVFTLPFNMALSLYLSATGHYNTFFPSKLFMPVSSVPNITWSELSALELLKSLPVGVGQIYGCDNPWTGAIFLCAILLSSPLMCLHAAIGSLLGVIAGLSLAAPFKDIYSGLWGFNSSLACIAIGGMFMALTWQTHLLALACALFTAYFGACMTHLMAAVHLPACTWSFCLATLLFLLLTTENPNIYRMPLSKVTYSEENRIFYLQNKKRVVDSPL
Description: MDCK cells stably expressing rat UT-A1 or UT-B were cultured in DMEM supplemented with 10% FBS, and the mRNA levels of UT-A1 and UT-B were measured in our previous research. Urea flux was assessed according to previously established methods. MDCK cells (2 × 10^5 cells/cm^2) were grown on 12 mm collagen-coated Costar Transwell inserts (0.4 μm pore size, Corning) for 4 d at 37 °C in the presence of 5% CO2. Once the cells on the apical side formed a tight monolayer (transepithelial resistance 1 kΩ/cm^2), PBS (pH = 7.4, containing 10 μmol/L forskolin) with E3 or DMSO was added to the top (0.25 mL) and bottom (1 mL) compartments, and the cultures were incubated in the absence of urea for 30 min at 37 °C. As UT-B is located in the plasma membrane while UT-A1 resides in the cytoplasm, forskolin was used to stimulate the translocation of UT-A1 from the cytoplasm to the membrane for urea transport. Subsequently, the solution in the bottom compartment was replaced with PBS (pH 7.4, containing 10 μmol/L forskolin and E3 or DMSO) supplemented with 15 mmol/L urea. Apical fluid samples (5 μL) were collected at 0, 1, 3, 5, 10, 15, 20, 30, 40, 50, and 60 min. The samples were subjected to an assay for urea (Urea Colorimetric Assay Kit (Diacetyl Oxime Method), Elabscience, Wuhan, China) according to the kit procedure. Then, the inhibition rate was calculated as described previously.

[3] = SIADH rats, E3 4 or 20 mg/kg every 8 h, tolvaptan 4 mg/kg once daily, vs model rats

CC(=O)c1ccc(C(=O)Nc2cccc(NS(=O)(=O)c3ccccc3)c2)o1 [Compound E3, 5-acetyl-N-(3-(phenylsulfonamido)phenyl)furan-2-carboxamide]
maximum inhibition rate, human cells (UT-B; erythrocyte lysis assay): approximately 100% | IC50 (UT-B; red blood cell lysis assay, read-out: IC50 for UT-B-promoted urea transport, humans): 0.025 µM | hyponatremia in SIADH rats ([1]; E3 4 or 20 mg/kg orally every 8 h, tolvaptan 4 mg/kg once daily, vs model): significantly alleviated | serum osmolality [1, 3]: significantly increased | serum sodium concentration [1, 3]: significantly increased | blood urea levels ([1]; SIADH rats, between experimental groups before and after treatment): no significant difference | H&E staining of kidney and liver ([1]; SIADH rats, except dilatation of collecting ducts): normal tissue structures | remaining amount, rat liver microsomes [2]: 61.1% | IC50 (rat UT-B): 0.058 µM

Source: article PMC12024912, “Druggability Studies of Benzene Sulfonamide Substituted Diarylamide (E3) as a Novel Diuretic” (Biomedicines, 2025)
